Experimental data taken from patent US20240398785A1, “SMALL MOLECULE DRUGS FOR THE INDUCTION OF TRAINED IMMUNITY” (THE UNIVERSITY OF CHICAGO, priority 2023, published 2024).

Key:
[1] = test system: BMDMs; test: A1155463 in-vitro training assay in BMDMs; format: cell-based, mouse; conditions: 24 hours after challenge, vs PBS-trained
Experimental: (§1) FIGS. 5A-5F: Testing A1155463 as an inducer of trained immunity (TI) in vitro. FIG. 5A is a schematic diagram for in-vitro TI assay in bone marrow-derived macrophages (BMDMs). FIG. 5B is a graph showing interleukin-6 (IL-6) levels (expressed in picograms per milliliter (pg/ml) 24 hours (h) post PAM3-CSK4 (Pam3) challenge in an in-vitro TI assay in BMDMs trained with either phosphate buffered saline (PBS) (black) or A1155463 (pink); n=15. FIG. 5C is a graph showing tumor necrosis factor alpha (TNF-α) levels (pg/ml) 24 h post Pam3 challenge in an in-vitro TI assay in BMDMs trained with either PBS (black) or A1155463 (pink); n=10. FIG. 5D is a graph showing IL-6 levels (pg/ml) 24 h post-stimulation with PBS (black) or A1155463 (pink); n=3. FIG. 5E is a graph showing the fold change in TNF-α following Pam3 challenge in BMDMs trained with A1155463 pre-treated with PBS, MTA (histone methyl transferase inhibitor), EGCG (histone acetyltransferase inhibitor) or 2-DG (glycolysis inhibitor); n=15, significance compared with PBS control of each inhibitor. FIG. 5F is a graph of IL-6 levels (pg/ml) 24 h post Pam3 challenge in an in-vitro TI assay in BMDMs trained with either PBS (black) or A1155463 (pink) pretreated with varying concentrations of 2-DG; n=5.
A1155463 is a commercially available inhibitor of the B-cell lymphoma-extra large (Bcl-xL) protein. […]

[2] = test system: BMDMs; test: A1155463 immunogenicity, BMDM supernatant after 24 hours; format: cell-based, mouse; conditions: no challenge
Experimental: FIG. 7: Testing immunogenicity of A115463 on BMDMs: BMDMs (100,000 cells per well) were incubated with PBS (red), different doses of A1155463 (blue 10 uM, green 1 uM or purple 0.1 uM) or different concentrations of DMSO, reflective of the A1155463 doses for 24 h.
(§2) Bcl-xL is an anti-apoptotic protein with some role in mediating inflammatory reactions.^32,33 Most documented inducers of trained immunity elicit an initial immune response upon administration. However, A1155463 has never been reported elicit inflammatory responses in vitro. To test if A1155463 elicited an enhanced innate response on its own in vitro, supernatant from BMDMs cultured with A1155463 for 24 hours was analyzed. […] The non-immunogenicity of A1155463 was validated using an NF-kb reporter cell line. […] Taken together, this evidence supports that A1155463 is a non-immunogenic trained immunity inducing molecule.

[3] = test system: RAW-Blue cells; test: RAW-Blue NF-kb reporter assay; format: cell-based; conditions: after 18 hours
Experimental: FIG. 8: RAW-Blue assay: RAW-Blue cells (100,000 cells per well) were incubated with PBS (black), A1155463 (pink) or 100 ng/mL LPS (green) for 18 h.
as §2

[4] = test system: BMDMs; test: A1155463 training with inhibitor pre-treatment (MTA, EGCG, 2-DG); format: cell-based, mouse
Experimental: as §1
After ruling out apoptosis and innate inflammation, an additional study was performed to attempt to determine the mechanism of action of A1155463-induced training in BMDMs. Training induces epigenetic and metabolic rewiring of macrophages which can be probed using small molecule inhibitors of various pathways.^16 Epigenetic changes are associated with increased histone methylation and acetylation, promoting transcription and translation of proinflammatory cytokines in response to pathogenic stimuli. Metabolic changes alter cellular metabolism, mostly favoring glycolysis, to meet the higher energy requirements of a trained cell. […]

[5] = test system: bone-marrow cells; test: Bone-marrow cells of trained mice challenged ex-vivo with LPS; format: in vivo, mouse; conditions: 5 ng/mL LPS ex vivo, 24 hours
Experimental: FIGS. 6A-6H: in-vivo A1155463 trained immunity (TI) assays. FIG. 6A is a schematic showing the in-vivo training schedule. Mice were dosed intraperitoneally (i.p.) with training material (PBS or A1155463 at 15 milligrams per kilogram body weight (mg/kg)) daily for six days. Mice were challenged with […] lipopolysaccharide (LPS) on day 7. FIG. 6B is a graph showing the interleukin-6 (IL-6) and tumor necrosis factor-alpha (TNF-α) levels (expressed as picograms per milliliter (pg/ml) 1 hour (h) following LPS challenge with either PBS (black) or A1155463 (pink); n=5. FIG. 6C is a graph showing the percentage (%) of small peritoneal macrophages (SPMs) from the peritoneal cavity of PBS (black) or A1155463 trained (pink) mice 2 h post LPS challenge on day 7. FIG. 6D is a graph showing the IL-6 levels (pg/ml) from bone-marrow cells isolated on day 7 challenged ex-vivo with LPS from either PBS (black) or A1155463 (pink) trained mice; n=3. FIG. 6E is a schematic showing the in-vivo training schedule for B16.F10 tumor challenge. […]
Apart from increased systemic cytokines, recruitment of monocyte-derived small peritoneal macrophages (SPMs) is another hallmark of enhanced training. […] Bone-marrow cells from PBS or A1155463 trained cells were challenged with 5 ng/mL of LPS and the supernatant was analyzed 24 hours later. […]

## CN(C)CC#Cc1ccc(OCCCc2sc(N3CCc4cccc(C(=O)Nc5nc6ccccc6s5)c4C3)nc2C(=O)O)c(F)c1 [A1155463, 2-(8-(benzo[d]thiazol-2-ylcarbamoyl)-3,4-dihydroisoquinolin-2(1H)-yl)-5-(3-(4-(3-(dimethyl-amino)prop-1-yn-1-yl)-2-fluorophenoxy)propyl)thiozole-4-carboxylic acid]
[1]
  increase in IL-6 following Pam3 challenge: approximately 1.2 fold
  increase in TNF-α following Pam3 challenge: approximately 1.2 fold
[2]
  IL-6 levels vs PBS-treated BMDMs: No significant difference
[3]
  NF-kb reporter signal vs PBS-treated cells: No significant difference
[4]; 30 min pre-treatment
  training after epigenetic small molecule inhibitors (MTA, EGCG): no significant difference
[4]; different concentrations of 2-DG
  Pam3 induced IL-6 levels with 2-DG: significant decrease
[4]; glycolysis inhibitor 2DG
  reduction in the TNF-α level following Pam3 challenge by 2DG pre-treatment: 50%
[5]
  increase in bone-marrow derived IL-6 levels vs untrained control: approximately 5 fold
